Results from patent EP1140984B1, “SELECTIVE INHIBITORS OF MMP-12” (Aventis Pharmaceuticals Inc., priority 1998, dated 2000).
Where a name gives a salt, the structure may show the parent alone.

How the values were obtained:
MMP-2 = molecular target: T1, MMP-2 (Homo sapiens, UniProt P08253); assay: Determination of inhibition constant (Ki) for MMP-2, fluorogenic substrate assay; format: biochemical; settings: substrate Mca-Pro-Leu-Gly-Leu-Dpa-Ala-Arg-NH2, 37°C, pH 7.6, [S] = 1 µM, [MMP-2] = 0.4 nM
T1 construct: made in house; host or cells: Pichia pastoris (strains KM71 / SMD1168, clone 24S; vector pHIL-D2)
T1 sequence (P08253 110-660): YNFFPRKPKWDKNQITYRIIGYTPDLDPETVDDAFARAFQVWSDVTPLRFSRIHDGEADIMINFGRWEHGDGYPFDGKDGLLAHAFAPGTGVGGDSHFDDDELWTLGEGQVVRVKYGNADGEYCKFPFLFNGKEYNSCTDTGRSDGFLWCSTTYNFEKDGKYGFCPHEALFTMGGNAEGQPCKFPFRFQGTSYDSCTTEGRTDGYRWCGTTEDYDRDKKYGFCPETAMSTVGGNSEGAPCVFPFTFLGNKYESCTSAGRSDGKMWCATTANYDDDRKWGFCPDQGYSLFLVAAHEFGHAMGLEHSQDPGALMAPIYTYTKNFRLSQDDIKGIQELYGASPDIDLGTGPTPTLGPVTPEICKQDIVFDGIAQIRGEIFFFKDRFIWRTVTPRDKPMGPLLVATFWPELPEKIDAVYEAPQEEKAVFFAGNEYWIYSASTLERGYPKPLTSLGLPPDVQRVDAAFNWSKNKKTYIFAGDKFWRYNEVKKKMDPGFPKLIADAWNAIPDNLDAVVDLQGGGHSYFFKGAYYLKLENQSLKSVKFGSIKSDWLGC
Text: Recombinant MMP-2 was purified from the fermentation broth of yeast Pichia pastoris that carries the integrated MMP-2 gene into its chromosome. In brief, the full-length cDNA for MMP-2 was obtained by reverse transcription of RNA from human melanoma A375M cell line by the reverse transcriptase polymerase chain reaction (RT-PCR) using sequence specific oligonucleotides. The nucleotide sequence was confirmed by Taq cycle sequencing. The cDNA was ligated into the Pichia pastoris expression vector pHIL-D2 in such a way that the expression of pro-MMP-2 is under the control of the methanol inducible alcohol oxidase promoter. The expression construct was digested with either SalI or NsiI and used to transform the Pichia pastoris strains KM71 and SMD1168. A large-scale culture of a selected clone designated 24S was performed in a high cell density fermentor and the recombinant MMP-2 was purified from the culture supernatant by gelatin-sepharose 4B (Pharmacia). The enzyme is sufficiently pure at this stage for routine measurement of inhibition. If desired, however, the enzyme may be further purified by AcA 44 gel filtration (Spectra).
The active MMP-2 was obtained by activation of proMMP-2 at 37°C for 1 h with 4-aminophenylmercuric acetate which was then removed by a Sephadex G-50 spin column. The enzyme is assayed using a fluorogenic substrate, Mca-Pro-Leu-Gly-Leu-Dpa-Ala-Arg-NH2, at 37°C in 2.0 mL of assay buffer containing 50 mM Tris, pH 7.6, 0.2 M sodium chloride, 50 mM calcium chloride, 0.02% Brij-35, and 50 µM β-mercaptoethanol. The increase in fluorescence is monitored (λex 328 nm, λem 393 nm). Substrate and inhibitor stock solutions are made in DMF. The enzyme is added at the last to start the reaction. For routine measurement of a Ki value for a reversible, competitive inhibitor, the initial rates in the presence of at least four inhibitor concentrations (two inhibitor concentrations above Ki and two below Ki) are measured using [S] = 1 µM (<<Km) and [MMP-2] = 0.4 nM. Under these conditions, the measured Ki, app is close to true Ki.

MMP-1 = molecular target: T2, MMP-1 (Homo sapiens, UniProt P03956); assay: Determination of inhibition constant (Ki) for MMP-1, fluorogenic substrate assay; format: biochemical; settings: substrate Mca-Pro-Leu-Gly-Leu-Dpa-Ala-Arg-NH2, 37°C, pH 7.6, [S] = 1 µM, [MMP-1] = 0.8 nM
T2 construct: The active MMP-1 was obtained by treatment of proMMP-1 with trypsin; endogenous in cells; host or cells: human rheumatoid synovial fibroblasts stimulated with macrophage-conditioned medium
T2 sequence (P03956 100-469): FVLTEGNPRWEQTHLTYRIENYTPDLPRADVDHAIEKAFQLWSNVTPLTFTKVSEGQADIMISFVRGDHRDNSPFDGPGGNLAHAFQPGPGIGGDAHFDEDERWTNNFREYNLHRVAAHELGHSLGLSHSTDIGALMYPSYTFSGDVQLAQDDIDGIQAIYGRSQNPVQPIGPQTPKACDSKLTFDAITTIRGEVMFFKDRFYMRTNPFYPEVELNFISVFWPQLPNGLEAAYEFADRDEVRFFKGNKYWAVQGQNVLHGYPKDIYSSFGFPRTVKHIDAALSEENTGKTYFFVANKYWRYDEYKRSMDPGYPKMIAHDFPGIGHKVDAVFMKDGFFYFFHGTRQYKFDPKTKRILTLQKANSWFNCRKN
Procedure: ProMMP-1 (EC 3.4.24.7; interstitial collagenase) was purified from culture medium of human rheumatoid synovial fibroblasts stimulated with macrophage-conditioned medium according to Okada, Y. et al., J. Biol. Chem. 261, 14245-14255 (1986). The active MMP-1 was obtained by treatment of proMMP-1 with trypsin (5 µg/mL) at 37°C for 30 minutes, followed by addition of soybean trypsin inhibitor (50 µg/mL).
The activated MMP-1 is assayed using a fluorogenic substrate, Mca-Pro-Leu-Gly-Leu-Dpa-Ala-Arg-NH2, Knight, C.G. et al., FEBS Lett. 296, 263-266 (1992), at 37°C in 2.0 mL of assay buffer containing 50 mM Tris, pH 7.6, 0.2 M sodium chloride, 50 mM calcium chloride, and 0.02% Brij-35. The increase in fluorescence due to cleavage of Gly-Leu peptide bond by MMP-3 was monitored with Perkin-Elmer LS50B Fluorimeter (λex 328 nm, λem 393 nm, excitation slit 2.5, emission slit 10). Substrate and inhibitor stock solutions were made in DMF. For determination of Ki values for MMP-1 inhibitors, a series of intermediate inhibitor solutions were prepared in DMF and 1 or 2 µL of the diluted inhibitor solution was mixed with 1 µL of 2 mM substrate solution in DMF in a quartz cuvette containing 2 mL of assay buffer. The enzyme (10 µL of 0.2 µM MMP-3 dilution in assay buffer) was added at the last to start the reaction. For routine measurement of a Ki value for a reversible, competitive inhibitor, the initial rates in the presence of at least four inhibitor concentrations (two concentrations above K; and two concentrations below Ki) were measured using [S] = 1 µM (<< Km) and [MMP-1] = 0.8 nM. Under these conditions, the measured Ki, app is close to true Ki.
The Ki for a competitive inhibitor is calculated using: v0/vi = (1 + [I]/Ki,app) and Ki = Ki,app/(1 + [S]/Km), where v0 is the initial rate in the absence of inhibitor, vi is the initial rate in the presence of inhibitor at the concentration of [I], [S] is the substrate concentration, and Km is the Michaelis constant. If slow binding is observed (i.e. if the approach to the binding equilibrium is slow), the final steady-state rate rather than the initial rate is taken as vi.

Row | SMILES | Ki (MMP-2) [nM] | Ki (MMP-1) [nM]
1 | CC(C)C[C@H](NC(=O)C(S)C(C)C)C(=O)N[C@@H](Cc1ccccc1)C(=O)O (stereo in doubt) [Example 3, (S)-2-Mercapto-3-methylbutyroyl-(L)-leucyl-(L)-phenylalanine] | 784 | 518
2 | CSCC[C@H](NC(=O)C(S)C(C)C)C(=O)N[C@@H](Cc1ccccc1)C(=O)O (stereo in doubt) [Example 4, (S)-2-Mercapto-3-methylbutyroyl-(L)-methionyl-(L)-phenylalanine] | 798 | 153
3 | CCCC(S)C(=O)N[C@@H](CCc1ccccc1)C(=O)N[C@@H](Cc1ccccc1)C(=O)O (stereo partly shown) [Example 1, 2-Mercapto-pentanoyl-(L)-homo-phenylalanyl-(L)-phenylalanine] | 1800 | 5800
4 | CC(C)[C@H](S)C(=O)N[C@@H](CCc1ccccc1)C(=O)N[C@@H](Cc1ccccc1)C(=O)O [Example 2, (S)-2-Mercapto-3-methylbutyroyl-(L)-homo-phenylalanyl-(L)-phenylalanine] | 731 | 5110
5 | CNC(=O)[C@H](Cc1ccccc1)NC(=O)[C@H](CCc1ccccc1)NC(=O)[C@@H](S)C(C)C [Example 7, (S)-2-Mercapto-3-methylbutyroyl-(L)-homo-phenylalanyl-(L)-phenylalanine N-methyl amide] | 3.3 | 465

Second part, the compound after the results:

Row | Ki (MMP-2) [nM] | Ki (MMP-1) [nM] | SMILES
6 | 1740 | 3910 | CC(C)C(S)C(=O)N[C@@H](CCCCN)C(=O)N[C@@H](Cc1ccccc1)C(=O)O (stereo in doubt) [Example 5, (S)-2-Mercapto-3-methylbutyroyl-(L)-lysyl-(L)-phenylalanine trifluoroacetic acid salt]
7 | – | 360 | CCCC(S)C(=O)N[C@@H](CCc1ccccc1)C(=O)N[C@@H](Cc1ccccc1)C(=O)NC (stereo partly drawn) [Example 6, (S)-2-Mercaptopentanoyl-(L)-homo-phenylalanyl-(L)-phenylalanine N-methyl amide]
